Laboratory results: patent US11021493B2, “1,4-thiazine dioxide and 1,2,4-thiadiazine dioxide derivatives as beta-secretase inhibitors and methods of use” (AMGEN INC., priority 2016, dated 2021)
pIC50: −log10 of the molar value. Structures can show the parent of a compound that is named as a salt.

What was measured:
BACE1 [1] = target: T1, BACE1 (Homo sapiens (Human), UniProt P56817); assay: In vitro enzymatic BACE1 FRET assay; assay type: biochemical; conditions: read-out: BACE1 Enzyme IC50
Target sequence in this assay (P56817 46-501): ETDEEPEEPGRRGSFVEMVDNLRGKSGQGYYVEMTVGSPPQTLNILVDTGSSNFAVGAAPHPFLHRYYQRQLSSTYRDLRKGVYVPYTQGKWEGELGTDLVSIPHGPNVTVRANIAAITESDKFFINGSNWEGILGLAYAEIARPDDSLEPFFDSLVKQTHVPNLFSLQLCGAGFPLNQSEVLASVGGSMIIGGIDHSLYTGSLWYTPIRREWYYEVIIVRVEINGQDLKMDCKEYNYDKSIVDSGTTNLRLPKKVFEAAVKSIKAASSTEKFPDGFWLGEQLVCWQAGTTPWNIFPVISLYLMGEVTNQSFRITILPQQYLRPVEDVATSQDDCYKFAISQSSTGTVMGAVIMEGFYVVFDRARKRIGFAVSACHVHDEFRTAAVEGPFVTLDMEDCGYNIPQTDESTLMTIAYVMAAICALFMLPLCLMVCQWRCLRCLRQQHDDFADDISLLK

BACE1 [2] = target: T1, BACE1; assay: In vitro BACE1 cell-based assay (Aβ40 in conditioned medium of cells stably expressing APP, HTRF)
Target sequence in this assay (P56817 46-501, species assumed): as the sequence (P56817 46-501) above

human recombinant BACE2 = human recombinant BACE2 (Homo sapiens (Human), UniProt Q9Y5Z0); assay: In vitro enzymatic BACE2 FRET assay; assay type: biochemical; conditions: read-out: BACE2 Enzyme IC50
Chain of human recombinant BACE2 (Q9Y5Z0 63-518): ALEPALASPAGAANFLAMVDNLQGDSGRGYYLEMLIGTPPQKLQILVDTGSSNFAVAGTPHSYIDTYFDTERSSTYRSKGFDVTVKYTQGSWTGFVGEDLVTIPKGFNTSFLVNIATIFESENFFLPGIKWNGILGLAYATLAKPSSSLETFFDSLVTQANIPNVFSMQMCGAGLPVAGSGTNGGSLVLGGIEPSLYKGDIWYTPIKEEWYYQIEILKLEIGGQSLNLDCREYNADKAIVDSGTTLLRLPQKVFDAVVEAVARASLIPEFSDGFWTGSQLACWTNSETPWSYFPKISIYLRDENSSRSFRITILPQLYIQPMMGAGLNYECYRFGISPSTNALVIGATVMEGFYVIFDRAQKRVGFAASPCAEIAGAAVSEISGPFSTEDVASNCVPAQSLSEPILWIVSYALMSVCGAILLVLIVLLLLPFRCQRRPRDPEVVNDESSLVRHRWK

Cathepsin D (CatD) = Cathepsin D (CatD) (Homo sapiens (Human), UniProt P07339); assay: In vitro enzymatic Cathepsin D (CatD) FRET assay; assay type: biochemical; conditions: read-out: Cat D Enzyme IC50
Chain of Cathepsin D (CatD) (P07339 65-412, species assumed): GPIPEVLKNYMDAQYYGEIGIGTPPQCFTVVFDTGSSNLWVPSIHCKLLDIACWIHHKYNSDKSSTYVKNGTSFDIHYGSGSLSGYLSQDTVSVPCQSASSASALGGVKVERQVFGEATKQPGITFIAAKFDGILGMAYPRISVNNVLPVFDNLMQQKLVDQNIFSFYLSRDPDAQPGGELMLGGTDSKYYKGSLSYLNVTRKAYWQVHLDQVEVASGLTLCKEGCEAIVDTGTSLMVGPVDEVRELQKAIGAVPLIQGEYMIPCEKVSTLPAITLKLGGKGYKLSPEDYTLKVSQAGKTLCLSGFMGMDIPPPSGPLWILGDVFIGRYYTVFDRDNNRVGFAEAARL

[3] = Aβ40 in conditioned media after 24 h incubation

Structure (SMILES) | pIC50 (BACE1 [1]) | pIC50 (BACE1 [2]; [3]) | pIC50 (human recombinant BACE2) | pIC50 (Cathepsin D (CatD)) | pIC50 (BACE1 [2])
CN1C(N)=N[C@](C)(c2cc(/C=C(\F)c3ncc(C#N)cc3Cl)ccc2F)CS1(=O)=O [Example 269, (R,Z)-6-(2-(3-(3-amino-2,5-dimethyl-1,1-dioxido-5,6-dihydro-2H-1,2,4-thiadiazin-5-yl)-4-fluorophenyl)-1-fluorovinyl)-5-chloronicotinonitrile] | 8.70 | 8.40 | 8.52 | 3.92 | 
Cc1noc(COc2cnc(/C(F)=C/c3ccc(F)c([C@@]4(C)N=C(N)[C@@]5(CF)CC[C@@H]4S5(=O)=O)c3)cn2)n1 [Example 115, (1R,4R,5S)-2-amino-4-(2-fluoro-5-((Z)-2-fluoro-2-(5-((3-methyl-1,2,4-oxadiazazol-5-yl)methoxy)pyrazin-2-yl)vinyl)phenyl)-1-(fluoromethyl)-4-methyl-8-thia-3-azabicyclo[3.2.1]oct-2-ene 8,8-dioxide] | 7.66 | 7.57 | 6.72 | 3.99 | 
C#C[C@H](C)Oc1cnc(/C(F)=C/c2cc(F)c(F)c([C@]3(C)CS(=O)(=O)N(C)C(N)=N3)c2)cn1 [Example 167, (R)-3-amino-5-(5-((Z)-2-(5-((S)-but-3-yn-2-yloxy)pyrazin-2-yl)-2-fluorovinyl)-2,3-difluorophenyl)-2,5-dimethyl-5,6-dihydro-2H-1,2,4-thiadiazine 1,1-dioxide hydrochloride] |  | 7.96 | 6.54 | 4.49 | 
C[C@]1(c2cc(/C=C(\F)c3ccc(Br)cn3)ccc2F)N=C(N)C2(CF)CC[C@@H]1S2(=O)=O (stereo in doubt) [Example 101, (1R,4R,5S)-2-amino-4-(5-((Z)-2-(5-bromopyridin-2-yl)-2-fluorovinyl)-2-fluorophenyl)-1-(fluoromethyl)-4-methyl-8-thia-3-azabicyclo[3.2.1]oct-2-ene 8,8-dioxide] | 8.30 | 7.10 | 7.89 |  | 
Cc1cc(COc2cnc(/C(F)=C/c3cc(F)c(F)c([C@]4(C)CS(=O)(=O)N(C)C(N)=N4)c3)cn2)on1 [Example 221, (R,Z)-3-amino-5-(2,3-difluoro-5-(2-fluoro-2-(5-((3-methylisoxazol-5-yl)methoxy)pyrazin-2-yl)vinyl)phenyl)-2,5-dimethyl-5,6-dihydro-2H-1,2,4-thiadiazine 1,1-dioxide] | 7.42 |  | 6.71 |  | 6.67
C#CCOc1cnc(/C(F)=C/c2ccc(F)c([C@]3(C)CS(=O)(=O)C(C)(C)C(N)=N3)c2)cn1 [Example 123, (R,Z)-5-amino-3-(2-fluoro-5-(2-fluoro-2-(5-(prop-2-yn-1-yloxy)pyrazin-2-yl)vinyl)phenyl)-3,6,6-trimethyl-3,6-dihydro-2H-1,4-thiazine 1,1-dioxide] | 9.00 |  |  |  | 8.52
CC1(C)C(N)=N[C@](C)(c2cc(/C=C(\F)c3cnc(O)cn3)ccc2F)CS1(=O)=O [Example 140, (R,Z)-5-amino-3-(2-fluoro-5-(2-fluoro-2-(5-hydroxypyrazin-2-yl)vinyl)phenyl)-3,6,6-trimethyl-3,6-dihydro-2H-1,4-thiazine 1,1-dioxide] |  | 6.62 | 6.69 | 3.75 | 
C#CCOc1cnc(/C(F)=C/c2ccc(F)c([C@]3(C)CS(=O)(=O)N(C)C(N)=N3)c2)cn1 [Example 112, (R,Z)-3-amino-5-(2-fluoro-5-(2-fluoro-2-(5-(prop-2-yn-1-yloxy)pyrazin-2-yl)vinyl)phenyl)-2,5-dimethyl-5,6-dihydro-2H-1,2,4-thiadiazine 1,1-dioxide] | 8.52 |  |  | 4.45 | 8.10
CC1(C)C(N)=N[C@](C)(c2cc(/C=C(\F)c3cnc(Cl)cn3)cc(F)c2F)CS1(=O)=O [Example 193, (R,Z)-5-amino-3-(5-(2-(5-chloropyrazin-2-yl)-2-fluorovinyl)-2,3-difluorophenyl)-3,6,6-trimethyl-3,6-dihydro-2H-1,4-thiazine 1,1-dioxide] | 6.92 | 6.08 |  | 4.08 | 
CN1C(N)=N[C@](C)(c2cc(/C=C(\F)c3cnc(OCC4CCC4)cn3)ccc2F)CS1(=O)=O [Example 174, (R,Z)-3-amino-5-(5-(2-(5-(cyclobutylmethoxy)pyrazin-2-yl)-2-fluorovinyl)-2-fluorophenyl)-2,5-dimethyl-5,6-dihydro-2H-1,2,4-thiadiazine 1,1-dioxide] |  | 5.85 | 6.95 | 4.66 | 
CN1C(N)=N[C@](C)(c2cc(/C=C(\F)c3cnc(OCC#CCO)cn3)ccc2F)CS1(=O)=O [Example 252, (R,Z)-3-amino-5-(2-fluoro-5-(2-fluoro-2-(5-((4-hydroxybut-2-yn-1-yl)oxy)pyrazin-2-yl)vinyl)phenyl)-2,5-dimethyl-5,6-dihydro-2H-1,2,4-thiadiazine 1,1-dioxide] | 8.00 | 8.15 | 7.25 |  | 
C#CCOc1cnc(/C(F)=C/c2ccc(F)c([C@@]3(C)N=C(N)C(C)(C)S(=O)(=O)[C@@H]3F)c2)cn1 (single isomer, unassigned) [Example 201] | 8.22 |  | 7.09 |  | 6.67
C#CCOc1cnc(/C(F)=C/c2ccc(F)c([C@@]3(C)N=C(N)N(C)S(=O)(=O)C3(C)C)c2)cn1 [Example 183, (R,Z)-3-amino-5-(2-fluoro-5-(2-fluoro-2-(5-(prop-2-yn-1-yloxy)pyrazin-2-yl)vinyl)phenyl)-2,5,6,6-tetramethyl-5,6-dihydro-2H-1,2,4-thiadiazine 1,1-dioxide] | 7.89 | 7.12 |  |  | 
C#CCOc1cnc(/C(F)=C/c2ccc(F)c([C@@]3(C)N=C(N)C(C)(C)S(=O)(=O)C3(F)F)c2)cn1 [Example 202, (R,Z)-5-amino-2,2-difluoro-3-(2-fluoro-5-(2-fluoro-2-(5-(prop-2-yn-1-yloxy)pyrazin-2-yl)vinyl)phenyl)-3,6,6-trimethyl-3,6-dihydro-2H-1,4-thiazine 1,1-dioxide] | 6.78 |  | 6.06 |  | 5.02
C=CCOc1cnc(/C(F)=C/c2cc(F)c(F)c([C@]3(C)CS(=O)(=O)N(C)C(N)=N3)c2)cn1 [Example 227, (R,Z)-5-(5-(2-(5-(allyloxy)pyrazin-2-yl)-2-fluorovinyl)-2,3-difluorophenyl)-3-amino-2,5-dimethyl-5,6-dihydro-2H-1,2,4-thiadiazine 1,1-dioxide] | 7.34 |  |  |  | 6.37
C#CCOc1cnc(/C(F)=C/c2ccc(F)c([C@@]3(C)N=C(N)C(C)(C)S(=O)(=O)[C@H]3F)c2)cn1 (single isomer, unassigned) [Example 200] | 7.74 |  | 7.07 |  | 6.69
CN1C(N)=N[C@](C)(c2cc(/C=C(\F)c3cnc(OCc4ncco4)cn3)ccc2F)CS1(=O)=O [Example 116, (R,Z)-3-amino-5-(2-fluoro-5-(2-fluoro-2-(5-(oxazol-2-ylmethoxy)pyrazin-2-yl)vinyl)phenyl)-2,5-dimethyl-5,6-dihydro-2H-1,2,4-thiadiazine 1,1-dioxide] | 8.52 | 9.00 | 7.35 |  | 
C[C@]1(c2cc(/C=C(/F)C3CCCO3)ccc2F)N=C(N)[C@@]2(CF)CC[C@@H]1S2(=O)=O (stereo partly drawn) [Example 278, (1R,4R,5S)-2-amino-4-(2-fluoro-5-((E)-2-fluoro-2-(tetrahydrofuran-2-yl)vinyl)phenyl)-1-(fluoromethyl)-4-methyl-8-thia-3-azabicyclo[3.2.1]oct-2-ene 8,8-dioxide] | 5.95 | 5.70 |  |  | 
